# Measured values published in ChEMBL document CHEMBL1155978, “Identification of positron emission tomography ligands for NPY Y5 receptors in the brain” (Bioorg Med Chem Lett, 2009).
# What was measured:
# [1] = Lipophilicity, Log D at pH 7.4; details: buffer
# [2] = target: T1, Neuropeptide Y receptor type 5 (Homo sapiens, UniProt Q15761); test: Displacement of [125I]PYY from human recombinant NPY Y5 receptor expressed in mouse LMtk cells; type: cell-based
# T1 sequence (Q15761 whole entry): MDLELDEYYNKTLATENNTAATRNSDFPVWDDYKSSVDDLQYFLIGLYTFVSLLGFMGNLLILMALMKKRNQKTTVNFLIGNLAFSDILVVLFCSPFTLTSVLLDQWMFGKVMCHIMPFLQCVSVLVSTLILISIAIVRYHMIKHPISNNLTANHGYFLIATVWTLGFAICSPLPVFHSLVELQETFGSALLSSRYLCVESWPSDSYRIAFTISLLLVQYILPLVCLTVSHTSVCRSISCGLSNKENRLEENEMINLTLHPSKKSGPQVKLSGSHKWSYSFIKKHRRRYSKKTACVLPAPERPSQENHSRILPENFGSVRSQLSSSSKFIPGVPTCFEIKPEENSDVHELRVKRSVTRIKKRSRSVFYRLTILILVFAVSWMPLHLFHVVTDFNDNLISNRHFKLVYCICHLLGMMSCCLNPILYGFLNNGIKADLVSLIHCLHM
# LLC-PK1 [3] = test: Efflux ratio of permeability from […] side in human MDR1 gene transfected pig LLC-PK1 cells; type: ADME, cell-based, Sus scrofa
# Rattus norvegicus = test: Plasma concentration in rat at 3 mg/kg, iv; type: ADME, organism-based; design: dose 3 mg/kg, route intravenous; details: in vivo; also: time not given here
# [4] = Ratio of drug level in cerebrospinal fluid to brain of rat at 3 mg/kg, iv; type: ADME, organism-based, CSF/Brain; design: dose 3 mg/kg, route intravenous; details: in vivo
# Cerebrospinal fluid = test: Drug level in rat cerebrospinal fluid at 3 mg/kg, iv; type: ADME, organism-based; design: dose 3 mg/kg, route intravenous; details: in vivo, read-out: Drug uptake; also: time not given here
# Brain = test: Drug level in rat brain at 3 mg/kg, iv; type: ADME, organism-based; design: dose 3 mg/kg, route intravenous; details: in vivo; as to Drug uptake: time not given here
# LLC-PK1 [5] = test: Efflux ratio of permeability from […] side in mouse mdr1a gene transfected pig LLC-PK1 cells; type: ADME, cell-based, Sus scrofa
# [6] = Ratio of drug level in rat brain to plasma at 3 mg/kg, iv; type: ADME, organism-based; design: dose 3 mg/kg, route intravenous
# [7] = target: T2, Neuropeptide Y receptor type 2 (Homo sapiens, UniProt P49146); test: Inhibition of human NPY Y2 receptor
# T2 sequence (P49146 whole entry): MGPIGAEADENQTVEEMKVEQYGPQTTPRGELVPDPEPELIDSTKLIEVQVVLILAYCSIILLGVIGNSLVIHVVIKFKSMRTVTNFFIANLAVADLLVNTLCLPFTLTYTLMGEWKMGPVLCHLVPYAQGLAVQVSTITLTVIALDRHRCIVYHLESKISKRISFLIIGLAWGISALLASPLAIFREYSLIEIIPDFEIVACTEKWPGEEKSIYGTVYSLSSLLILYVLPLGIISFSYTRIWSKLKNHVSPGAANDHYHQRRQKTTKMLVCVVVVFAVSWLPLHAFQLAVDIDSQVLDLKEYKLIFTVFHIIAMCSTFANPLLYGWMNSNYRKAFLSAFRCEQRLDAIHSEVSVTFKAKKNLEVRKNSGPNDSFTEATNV
# [8] = target: T3, Neuropeptide Y receptor type 1 (Homo sapiens, UniProt P25929); test: Inhibition of human NPY Y1 receptor
# T3 sequence (P25929 whole entry): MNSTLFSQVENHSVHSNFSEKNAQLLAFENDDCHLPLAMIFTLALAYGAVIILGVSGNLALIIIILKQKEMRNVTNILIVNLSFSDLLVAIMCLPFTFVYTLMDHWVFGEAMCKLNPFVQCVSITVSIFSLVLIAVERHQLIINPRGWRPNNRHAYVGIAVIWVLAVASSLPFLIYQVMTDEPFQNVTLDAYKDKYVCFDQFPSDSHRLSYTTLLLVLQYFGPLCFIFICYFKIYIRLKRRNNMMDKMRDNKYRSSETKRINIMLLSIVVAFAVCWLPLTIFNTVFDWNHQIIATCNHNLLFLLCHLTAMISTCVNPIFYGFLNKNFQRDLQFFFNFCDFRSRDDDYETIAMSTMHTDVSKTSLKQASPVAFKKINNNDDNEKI
# [9] = target: Neuropeptide Y receptor type 4 (Homo sapiens, UniProt P50391); test: Inhibition of human NPY Y4 receptor
# Neuropeptide Y receptor type 4, sequence (P50391 whole entry): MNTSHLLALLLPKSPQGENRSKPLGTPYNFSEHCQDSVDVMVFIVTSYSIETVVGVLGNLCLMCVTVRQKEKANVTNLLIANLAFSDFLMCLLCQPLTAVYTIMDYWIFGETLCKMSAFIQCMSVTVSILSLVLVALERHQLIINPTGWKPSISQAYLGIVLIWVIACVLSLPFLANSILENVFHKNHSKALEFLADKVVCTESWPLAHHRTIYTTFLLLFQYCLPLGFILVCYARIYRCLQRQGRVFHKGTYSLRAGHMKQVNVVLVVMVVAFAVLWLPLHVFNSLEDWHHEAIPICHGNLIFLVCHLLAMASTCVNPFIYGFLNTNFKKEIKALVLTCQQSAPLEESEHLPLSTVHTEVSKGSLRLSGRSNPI
structure (smiles),measurement,setting,value
O=C1O[C@]2(CC[C@H](C(=O)Nc3ncc(-c4ccccc4)cn3)CC2)c2ccccc21,logD,[1],3.73
same,IC50,[2],0.64 nM
O=C1O[C@]2(CC[C@H](C(=O)Nc3ncc(-c4cccc(OCF)c4)cn3)CC2)c2cccnc21,IC50,[2],3.1 nM
O=C1O[C@]2(CC[C@H](C(=O)Nc3ncc(-c4ccccc4F)cn3)CC2)c2cccnc21,IC50,[2],3 nM
O=C1O[C@]2(CC[C@H](C(=O)Nc3ncc(-c4cccc(OCF)c4)cn3)CC2)c2ccncc21,Ratio,LLC-PK1 [3],1.52
same,logD,[1],2.71
same,concentration,Rattus norvegicus,1500 nM
same,Ratio,[4],0.42
same,concentration,Cerebrospinal fluid,64 nM
same,IC50,[2],1.8 nM
same,concentration,Brain; read-out: Drug uptake,150 nM
same,Ratio,LLC-PK1 [5],9.51
same,Kp,[6],0.11
O=C1O[C@]2(CC[C@H](C(=O)Nc3ncc(-c4ccc(F)cc4)cn3)CC2)c2cccnc21,IC50,[2],7.5 nM
O=C1O[C@]2(CC[C@H](C(=O)Nc3ncc(-c4ccccc4)cn3)CC2)c2cccnc21,logD,[1],2.32
same,IC50,[2],2.1 nM
O=C1O[C@]2(CC[C@H](C(=O)Nc3ncc(-c4ccccc4F)cn3)CC2)c2cnccc21,logD,[1],2.79
same,IC50,[2],1.8 nM
O=C1O[C@]2(CC[C@H](C(=O)Nc3ncc(-c4cccc(CF)c4)cn3)CC2)c2cccnc21,IC50,[2],2.3 nM
O=C1O[C@]2(CC[C@H](C(=O)Nc3ncc(-c4ccccc4)cn3)CC2)c2ncccc21,logD,[1],2.71
same,IC50,[2],2.9 nM
O=C1O[C@]2(CC[C@H](C(=O)Nc3ncc(-c4cccc(OCF)c4)cn3)CC2)c2cnccc21,Ratio,LLC-PK1 [3],1.37
same,logD,[1],2.75
same,concentration,Rattus norvegicus,2040 nM
same,Ratio,[4],0.13
same,concentration,Cerebrospinal fluid,95 nM
same,IC50,[2],1.9 nM
same,concentration,Brain; read-out: Drug uptake,740 nM
same,Ratio,LLC-PK1 [5],8.23
same,Kp,[6],0.37
O=C1O[C@]2(CC[C@H](C(=O)Nc3ncc(-c4ccccc4)cn3)CC2)c2ccncc21,IC50,[2],2 nM
O=C1O[C@]2(CC[C@H](C(=O)Nc3ncc(-c4cccc(F)c4)cn3)CC2)c2ccncc21,Ratio,LLC-PK1 [3],1.41
same,logD,[1],2.78
same,concentration,Rattus norvegicus,3450 nM
same,Ratio,[4],0.22
same,concentration,Cerebrospinal fluid,308 nM
same,IC50,[2],1.5 nM
same,concentration,Brain; read-out: Drug uptake,1420 nM
same,Ratio,LLC-PK1 [5],7.78
same,Kp,[6],0.41
O=C1O[C@]2(CC[C@H](C(=O)Nc3ncc(-c4cccc(CF)c4)cn3)CC2)c2cnccc21,Ratio,LLC-PK1 [3],1.69
same,logD,[1],2.65
same,concentration,Rattus norvegicus,1220 nM
same,Ratio,[4],0.22
same,concentration,Cerebrospinal fluid,79 nM
same,IC50,[2],1.8 nM
same,concentration,Brain; read-out: Drug uptake,370 nM
same,Ratio,LLC-PK1 [5],7.9
same,Kp,[6],0.3
O=C1O[C@]2(CC[C@H](C(=O)Nc3ncc(-c4ccccc4)cn3)CC2)c2cnccc21,logD,[1],2.65
same,IC50,[2],1.8 nM
O=C1O[C@]2(CC[C@H](C(=O)Nc3ncc(-c4cccc(F)c4)cn3)CC2)c2cnccc21,IC50,[2],1.8 nM
O=C1O[C@]2(CC[C@H](C(=O)Nc3ncc(-c4ccccc4CF)cn3)CC2)c2cnccc21,logD,[1],2.54
same,IC50,[2],2 nM
O=C1O[C@]2(CC[C@H](C(=O)Nc3ncc(-c4ccccc4OCF)cn3)CC2)c2cnccc21,logD,[1],2.71
same,IC50,[2],2.6 nM
O=C1O[C@]2(CC[C@H](C(=O)Nc3ncc(-c4ccc(F)cc4)cn3)CC2)c2ccncc21,IC50,[2],2.2 nM
O=C1O[C@]2(CC[C@H](C(=O)Nc3ncc(-c4ccccc4OCF)cn3)CC2)c2ccncc21,IC50,[2],2.2 nM
O=C1O[C@]2(CC[C@H](C(=O)Nc3ncc(-c4ccccc4OCF)cn3)CC2)c2cccnc21,IC50,[2],4.5 nM
O=C1O[C@]2(CC[C@H](C(=O)Nc3ncc(-c4cccc(F)c4)cn3)CC2)c2cccnc21,logD,[1],2.48
same,IC50,[2],2.2 nM
O=C1O[C@]2(CC[C@H](C(=O)Nc3ncc(-c4ccccc4F)cn3)CC2)c2ccncc21,Ratio,LLC-PK1 [3],1.11
same,IC50,[7],> 10000 nM
same,IC50,[8],> 10000 nM
same,logD,[1],2.79
same,concentration,Rattus norvegicus,3100 nM
same,Ratio,[4],0.19
same,concentration,Cerebrospinal fluid,288 nM
same,IC50,[2],1.5 nM
same,concentration,Brain; read-out: Cp,1550 nM
same,IC50,[9],> 10000 nM
same,Ratio,LLC-PK1 [5],4.43
same,Kp,[6],0.5
O=C1O[C@]2(CC[C@H](C(=O)Nc3ncc(-c4ccc(F)cc4)cn3)CC2)c2cnccc21,IC50,[2],2.7 nM
